Laboratory results: US20070059778A1, “Modified colony assay” (priority 2005, published 2007)

Test system: erythroid colonies (hematopoietic progenitors)
Assay: Hematopoietic CFC assay with anti-GpA-FITC staining, erythroid colony formation in cultures containing 5-FU
Assay type: cell-based, Human
Conditions: erythroid colonies stained with anti-GPA-FITC, day 14, densitometry
Method: Human BM, CB or MPB mononuclear cells were suspended in a methylcellulose-based culture medium containing cytokines (MethoCult™ H4434, StemCell Technologies) (StemCell Technologies Methocult™ Flyer; StemCell Technologies 2003 Catalogue pp. 86-125) at a concentration of between 1×10^4 and 1×10^5 cells per 1.1 mL of medium. The culture medium was then dispensed into 35 mm culture dishes using 3 mL syringes with blunt end needles, with 1.1 mL of medium per dish. All cultures were incubated for a total of 14 days at 37° C., 5% CO2, 100% humidity. Colonies were enumerated and classified by bright-field microscopy into the following categories based on size and morphology: CFU-E, BFU-E, CFU-GM, CFU-GEMM (StemCell Technologies Colony Atlas).
Standard CFC assays were prepared as described in example 1. […] After 14 days of culture at 37° C. the dishes were inspected using an inverted fluorescence microscope. […] The erythroid colonies were counted using bright field and fluorescence. Both methods gave very similar results: 27 colonies per dish by bright field illumination; 26 colonies by fluorescence.
A CFC-assay was set up as described in Example 2. […] Colonies were examined and photographed on day 14 and colony size and fluorescence intensity were analysed by densitometry.

In the case of `O=c1[nH]cc(F)c(=O)[nH]1` [5-FU, 5-Fluoro-Uracil], the “size of fluorescent colonies, as measured by surface area and perimeter length” value (versus cultures without 5-FU (FIG. 4A)) is reported as “decreased” and the “fluorescence intensity of colonies” value (versus cultures without 5-FU (FIG. 4B)) is reported as “decreased”.
